Results published in patent US12226379B2, “Highly sustainable compositions for modulation of gene expression in human skin, and methods of production thereof” (Visolis Technologies, Inc., priority 2022, dated 2025).

Tests used:
Assay type in all cases: cell-based
[1] = tested on: EpiSkin-LM 3-dimensional in-vitro human skin model; experiment: Gene expression test (DNA microarray, mRNA) on the EpiSkin-LM reconstructed 3D skin model
Protocol: Gene expression tests were conducted on EpiSkin-LM™, a commercially available 3-dimensional in-vitro human skin model composed of normal human skin cells in a collagen matrix. Test samples contained either 0.5% or 1.0% of highly sustainable, high-purity MVL by weight in a phosphate-buffered saline (PBS) solution. Negative control samples contained PBS only.
Reconstructed 3D skin epidermal models (EpiSkin-LM™) were pre-incubated with 5 mL of maintenance medium for 24 hours per manufacturer instruction. 2 mL of the test samples or negative controls were applied on the top of the epidermis. The treated models were incubated for 24 hours. After incubation, the models were rinsed with PBS, then treated again with 2 mL test samples or the negative control and incubated an additional 24 hours.
After the second incubation, mRNA was extracted from the models by miRNeasy® Mini Kit (QIAGEN). mRNA expression level in the model was measured by a Genopal® DNA microarray chip. Modulation of gene expression level was expressed as the ratio of mRNA transcripts in the test-sample treated models to mRNA transcripts in the negative control models. Positive numbers indicated an increase in gene expression, and negative numbers indicated a decrease in gene expression relative to the negative control.

[2] = tested on: normal human epidermal keratinocytes cells; experiment: Cortisol production test (conversion of cortisone to cortisol, Alpha LISA); conditions: FIG. 13
Protocol: Impact of MVL on metabolism, specifically cortisol production, was conducted on keratinocytes. Generally, 11β-HSD1 (Hydroxysteroid Dehydrogenase Type 1) converts costisone to cortisol, which then induces stress response. Impact of MVL on conversion of cortisone to cortisol was evaluated. Cortisol production tests were conducted on normal human epidermal keratinocytes cells. […] Negative control samples contained PBS only. Cortisol production was subsequently measured via the Alpha LISA system.

[3] = tested on: normal human epidermal keratinocytes (NHEKs) cells; experiment: Hyaluronic acid level in medium (ELISA, normalized to protein level); conditions: FIG. 15; for increase in hyaluronic acid levels: 48 hours, p<0.05
Protocol: Impact of MVL on hyaluronic acid, was conducted on keratinocytes. Hyaluronic acid is a crucial component of the skin. Impact of MVL on conversion of hyaluronic acid was evaluated. Hyaluronic acid tests were conducted on normal human epidermal keratinocytes (NHEKs) cells. Test samples contained 0-0.25% of highly sustainable, high-purity MVL by weight in a phosphate-buffered saline (PBS) solution. Negative control samples contained PBS only. Hyaluronic acid level in the medium was subsequently measured at 24 hours and 48 hours via ELISA and normalized to the protein level in the NHEK cells.

[4] = compositions containing 0.1 to 1.0 weight percent, human epithelial cells

## C[C@@]1(O)CCOC(=O)C1 [MVL, R-mevalonolactone]
[1]; 1.0% by weight in PBS, two 24 h treatments, genes of extracellular matrix degradation, inflammation, skin pigmentation (FIGS. 6-8)
  decrease in gene expression level relative to negative control (MMP1, MMP2, MMP3, MMP7, MMP9, NFATC1, IL1A, IL1B, TNFA, SELE, SELL, EDN1, EDN2, EDN3, PTGS2 (COX2), POMC): at least 10%
[1]; [4]
  decrease in expression of genes related to ECM degradation, inflammation and pigmentation: at least 10%
  increase in expression of genes related to epithelial turnover, hyaluronic acid synthesis, barrier function and anti-aging elasticity: at least 10%
[2]; 0.125-0.5% by weight, higher concentrations give larger decline in cortisol levels
  conversion of cortisone to cortisol: potently modulates
[2]; 0.5% concentration in PBS with cortisone
  reduction of cortisol production: over 15%
[3]; 0.13% concentration
  increase in hyaluronic acid levels: over 5%
[3]; 0.13-0.25% by weight, higher concentrations give higher hyaluronic acid levels
  hyaluronic acid levels: potently modulates
[3]; 0.25% concentration
  increase in hyaluronic acid levels: over 5%
